Data from ChEMBL document CHEMBL5236572, “Bioactive Aurones, Indanones, and Other Hemiindigoid Scaffolds: Medicinal Chemistry and Photopharmacology Perspectives” (J Med Chem, 2022).
In brackets after ≈: the same amount, converted by molar mass.

Legend:
PC-3 = experiment: Antiproliferative activity against doxorubicin resistant human PC-3 cells assessed as inhibition of cell proliferation by Beckman Coulter analysis; type: functional, cell-based
Aspergillus flavus [1] = experiment: Antifungal activity against Aspergillus flavus NRRL-3357 assessed as reduction in fungal growth by well diffusion method; type: functional
Proteus vulgaris = experiment: Antimicrobial activity against Proteus vulgaris assessed as bacterial growth inhibition incubated for 24 hrs by well diffusion method; type: functional
Candida albicans = experiment: Antifungal activity against Candida albicans assessed as reduction in fungal growth by well diffusion method; type: functional
Staphylococcus aureus = experiment: Antimicrobial activity against Staphylococcus aureus MTCC96 assessed as bacterial growth inhibition incubated for 24 hrs by well diffusion method; type: functional
Escherichia coli = experiment: Antimicrobial activity against Escherichia coli MTCC43 assessed as bacterial growth inhibition incubated for 24 hrs by well diffusion method; type: functional
Bacillus subtilis = experiment: Antimicrobial activity against Bacillus subtilis MTCC 121 assessed as bacterial growth inhibition incubated for 24 hrs by well diffusion method; type: functional
HEK-293T = experiment: Cytotoxicity against human HEK293T cells assessed as reduction in cell viability incubated for 48 hrs by Alamar Blue assay; type: functional, cell-based
Plasmodium falciparum = experiment: Antimalarial activity against chloroquine-resistant erythrocyte stage Plasmodium falciparum assessed as growth inhibition incubated for 72 hrs by SYBR Green I dye based fluorescence analysis; type: functional, organism-based
Plasmodium berghei = experiment: Antimalarial activity against liver stage transgenic Plasmodium berghei (PbGFP-Luccon) infected in human Huh-7 cells assessed as reduction in parasite load incubated for 48 hrs by firefly luciferase assay; type: functional, organism-based; details: Huh-7, 48 h
Acetylcholinesterase [2] = target: Acetylcholinesterase (Homo sapiens, UniProt P22303); experiment: Inhibition of human AchE by Ellman's method
Chain of Acetylcholinesterase (Homo sapiens, UniProt P22303) (P22303 whole entry): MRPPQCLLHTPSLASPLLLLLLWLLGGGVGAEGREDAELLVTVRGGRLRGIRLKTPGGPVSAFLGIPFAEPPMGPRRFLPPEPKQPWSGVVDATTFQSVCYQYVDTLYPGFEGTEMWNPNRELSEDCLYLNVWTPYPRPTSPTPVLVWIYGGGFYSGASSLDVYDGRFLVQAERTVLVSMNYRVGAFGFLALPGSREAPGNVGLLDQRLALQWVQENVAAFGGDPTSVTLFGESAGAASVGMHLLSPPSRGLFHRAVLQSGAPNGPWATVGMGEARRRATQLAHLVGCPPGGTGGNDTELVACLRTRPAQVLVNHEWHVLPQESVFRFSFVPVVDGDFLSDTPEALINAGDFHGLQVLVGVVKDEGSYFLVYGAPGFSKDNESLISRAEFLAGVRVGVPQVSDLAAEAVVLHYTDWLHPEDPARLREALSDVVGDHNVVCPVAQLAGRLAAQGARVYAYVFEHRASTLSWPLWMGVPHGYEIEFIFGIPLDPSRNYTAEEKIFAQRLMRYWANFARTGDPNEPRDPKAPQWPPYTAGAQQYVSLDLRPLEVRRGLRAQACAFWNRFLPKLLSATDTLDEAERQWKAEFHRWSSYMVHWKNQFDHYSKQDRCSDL

Schistosoma mansoni [3] = experiment: Antischistosomal activity against adult stage of Schistosoma mansoni BH assessed assessed as inhibition of parasite death at 25 uM incubated for 24 hrs by light microscopy; type: functional
[4] = Cytotoxicity against mouse Peritoneal macrophage incubated for 24 hrs by MTT assay; type: toxicity, cell-based; details: peritoneal macrophages
Acetylcholinesterase [5] = target: Acetylcholinesterase (Electrophorus electricus, UniProt O42275); experiment: Inhibition of electric eel AChE using acetylthiocholine iodide as substrate preincubated for 5 mins followed by substrate addition by spectrophotometric Ellman's method
Chain of Acetylcholinesterase (Electrophorus electricus, UniProt O42275) (O42275 whole entry): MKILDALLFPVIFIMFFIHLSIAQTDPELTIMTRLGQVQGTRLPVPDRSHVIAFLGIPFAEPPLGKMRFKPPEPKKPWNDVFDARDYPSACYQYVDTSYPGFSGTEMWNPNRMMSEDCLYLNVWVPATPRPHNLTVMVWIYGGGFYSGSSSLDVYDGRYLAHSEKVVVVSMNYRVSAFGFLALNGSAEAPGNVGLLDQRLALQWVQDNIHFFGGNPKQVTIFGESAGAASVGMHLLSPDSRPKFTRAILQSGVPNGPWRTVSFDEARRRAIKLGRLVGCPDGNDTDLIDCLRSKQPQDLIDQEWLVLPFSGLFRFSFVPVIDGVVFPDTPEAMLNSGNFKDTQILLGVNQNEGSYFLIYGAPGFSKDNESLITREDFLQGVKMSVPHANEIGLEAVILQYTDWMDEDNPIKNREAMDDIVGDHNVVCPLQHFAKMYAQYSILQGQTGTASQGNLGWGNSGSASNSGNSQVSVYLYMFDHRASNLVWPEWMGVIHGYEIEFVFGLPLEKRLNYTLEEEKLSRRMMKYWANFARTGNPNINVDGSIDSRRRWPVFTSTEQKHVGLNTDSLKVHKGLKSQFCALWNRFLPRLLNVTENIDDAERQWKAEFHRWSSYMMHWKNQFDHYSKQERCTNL

[6] = Inhibition of equine serum BuChE using butyrylthiocholine iodide as substrate preincubated for 5 mins followed by substrate addition by spectrophotometric Ellman's method
[7] = Selectivity index, ratio of IC50 for inhibition of electric eel AChE to IC50 for inhibition of equine serum BuChE
[8] = system: Mycobacterium tuberculosis; experiment: Antimicrobial activity against Mycobacterium tuberculosis assessed as reduction in bacterial growth by Alamar Blue fluorescence assay; type: functional, organism-based
HT-22 [9] = experiment: Neuroprotective activity against glutamate induced-neurotoxicity in mouse HT-22 cells assessed as cell viability preincubated for 4 hrs followed by glutamate stimulation and measured after 12 hrs by MTT assay; type: functional, cell-based
[10] = Inhibition of synthetic AcPHF6 peptide aggregation measured upto 120 mins at 1 min interval by ThT-based fluorometric assay
Histone deacetylase 7 = Histone deacetylase 7 (Homo sapiens, UniProt Q8WUI4); experiment: Inhibition of human HDAC7 in HeLa cells extract incubated for 5 mins followed by substrate addition and measured after 15 mins using Fluor-de-Lys as substrate by spectrofluorometric analysis; type: cell-free
Chain of Histone deacetylase 7 (Q8WUI4 whole entry): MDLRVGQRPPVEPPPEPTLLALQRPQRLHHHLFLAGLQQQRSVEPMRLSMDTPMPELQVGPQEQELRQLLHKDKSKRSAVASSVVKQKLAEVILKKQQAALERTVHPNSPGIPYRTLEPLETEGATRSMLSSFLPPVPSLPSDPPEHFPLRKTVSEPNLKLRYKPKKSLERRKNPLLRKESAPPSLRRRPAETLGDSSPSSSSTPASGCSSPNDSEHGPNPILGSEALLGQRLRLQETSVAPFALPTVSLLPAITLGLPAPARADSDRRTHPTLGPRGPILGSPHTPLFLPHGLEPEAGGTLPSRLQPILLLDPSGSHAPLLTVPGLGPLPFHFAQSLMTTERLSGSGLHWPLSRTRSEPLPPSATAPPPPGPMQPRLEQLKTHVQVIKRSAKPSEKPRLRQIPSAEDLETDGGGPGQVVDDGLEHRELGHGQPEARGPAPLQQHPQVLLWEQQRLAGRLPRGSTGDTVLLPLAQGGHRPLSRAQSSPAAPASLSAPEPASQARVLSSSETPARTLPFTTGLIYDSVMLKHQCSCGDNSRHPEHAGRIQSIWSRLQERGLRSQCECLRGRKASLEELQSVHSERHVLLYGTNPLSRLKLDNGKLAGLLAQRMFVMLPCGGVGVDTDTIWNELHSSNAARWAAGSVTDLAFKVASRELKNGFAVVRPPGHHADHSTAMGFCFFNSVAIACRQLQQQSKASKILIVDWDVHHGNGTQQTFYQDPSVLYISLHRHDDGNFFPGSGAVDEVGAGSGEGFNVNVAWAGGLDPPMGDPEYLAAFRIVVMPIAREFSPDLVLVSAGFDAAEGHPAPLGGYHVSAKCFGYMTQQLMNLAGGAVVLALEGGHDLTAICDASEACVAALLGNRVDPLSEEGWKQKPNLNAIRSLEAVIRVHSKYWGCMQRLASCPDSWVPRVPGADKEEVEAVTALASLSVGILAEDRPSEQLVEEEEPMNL

HT-22 [11] = experiment: Neuroprotective activity against glutamate induced-neurotoxicity in mouse HT-22 cells assessed as cell viability at 40 uM preincubated for 4 hrs followed by glutamate stimulation and measured after 12 hrs by MTT assay; type: functional; details: time 16 hrs, read-out: Activity
Histone deacetylase 2 = Histone deacetylase 2 (Homo sapiens, UniProt Q92769); experiment: Inhibition of human HDAC2 in HeLa cells extract incubated for 5 mins followed by substrate addition and measured after 15 mins using Fluor-de-Lys as substrate by spectrofluorometric analysis; type: cell-free
Chain of Histone deacetylase 2 (Q92769 whole entry): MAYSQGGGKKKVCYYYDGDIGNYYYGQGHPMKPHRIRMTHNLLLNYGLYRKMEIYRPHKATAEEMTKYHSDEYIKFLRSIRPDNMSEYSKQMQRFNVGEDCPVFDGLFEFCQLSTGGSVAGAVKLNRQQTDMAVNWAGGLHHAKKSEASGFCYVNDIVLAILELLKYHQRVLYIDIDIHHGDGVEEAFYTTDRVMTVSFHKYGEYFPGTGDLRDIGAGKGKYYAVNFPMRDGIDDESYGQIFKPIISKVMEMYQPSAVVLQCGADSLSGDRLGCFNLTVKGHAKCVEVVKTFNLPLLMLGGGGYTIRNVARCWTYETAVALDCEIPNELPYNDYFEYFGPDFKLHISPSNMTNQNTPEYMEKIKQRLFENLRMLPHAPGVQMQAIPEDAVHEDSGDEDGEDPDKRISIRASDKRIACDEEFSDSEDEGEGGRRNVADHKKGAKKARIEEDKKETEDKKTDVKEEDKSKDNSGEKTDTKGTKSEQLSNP

Histone deacetylase 8 = Histone deacetylase 8 (Homo sapiens, UniProt Q9BY41); experiment: Inhibition of human HDAC8 in HeLa cells extract incubated for 5 mins followed by substrate addition and measured after 15 mins using Fluor-de-Lys as substrate by spectrofluorometric analysis; type: cell-free
Chain of Histone deacetylase 8 (Q9BY41 whole entry): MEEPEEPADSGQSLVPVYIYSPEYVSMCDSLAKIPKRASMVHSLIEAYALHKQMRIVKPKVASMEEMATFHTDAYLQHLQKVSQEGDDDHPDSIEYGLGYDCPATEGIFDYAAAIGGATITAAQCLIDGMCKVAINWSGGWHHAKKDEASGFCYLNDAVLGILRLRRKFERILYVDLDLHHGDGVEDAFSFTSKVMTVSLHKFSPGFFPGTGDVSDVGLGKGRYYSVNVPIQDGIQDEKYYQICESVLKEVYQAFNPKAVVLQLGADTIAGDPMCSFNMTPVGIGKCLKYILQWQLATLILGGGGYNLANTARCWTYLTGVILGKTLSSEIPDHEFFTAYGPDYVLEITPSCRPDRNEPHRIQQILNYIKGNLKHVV

Histone deacetylase 4 = Histone deacetylase 4 (Homo sapiens, UniProt P56524); experiment: Inhibition of human HDAC4 in HeLa cells extract incubated for 5 mins followed by substrate addition and measured after 15 mins using Fluor-de-Lys as substrate by spectrofluorometric analysis; type: cell-free
Chain of Histone deacetylase 4 (P56524 whole entry): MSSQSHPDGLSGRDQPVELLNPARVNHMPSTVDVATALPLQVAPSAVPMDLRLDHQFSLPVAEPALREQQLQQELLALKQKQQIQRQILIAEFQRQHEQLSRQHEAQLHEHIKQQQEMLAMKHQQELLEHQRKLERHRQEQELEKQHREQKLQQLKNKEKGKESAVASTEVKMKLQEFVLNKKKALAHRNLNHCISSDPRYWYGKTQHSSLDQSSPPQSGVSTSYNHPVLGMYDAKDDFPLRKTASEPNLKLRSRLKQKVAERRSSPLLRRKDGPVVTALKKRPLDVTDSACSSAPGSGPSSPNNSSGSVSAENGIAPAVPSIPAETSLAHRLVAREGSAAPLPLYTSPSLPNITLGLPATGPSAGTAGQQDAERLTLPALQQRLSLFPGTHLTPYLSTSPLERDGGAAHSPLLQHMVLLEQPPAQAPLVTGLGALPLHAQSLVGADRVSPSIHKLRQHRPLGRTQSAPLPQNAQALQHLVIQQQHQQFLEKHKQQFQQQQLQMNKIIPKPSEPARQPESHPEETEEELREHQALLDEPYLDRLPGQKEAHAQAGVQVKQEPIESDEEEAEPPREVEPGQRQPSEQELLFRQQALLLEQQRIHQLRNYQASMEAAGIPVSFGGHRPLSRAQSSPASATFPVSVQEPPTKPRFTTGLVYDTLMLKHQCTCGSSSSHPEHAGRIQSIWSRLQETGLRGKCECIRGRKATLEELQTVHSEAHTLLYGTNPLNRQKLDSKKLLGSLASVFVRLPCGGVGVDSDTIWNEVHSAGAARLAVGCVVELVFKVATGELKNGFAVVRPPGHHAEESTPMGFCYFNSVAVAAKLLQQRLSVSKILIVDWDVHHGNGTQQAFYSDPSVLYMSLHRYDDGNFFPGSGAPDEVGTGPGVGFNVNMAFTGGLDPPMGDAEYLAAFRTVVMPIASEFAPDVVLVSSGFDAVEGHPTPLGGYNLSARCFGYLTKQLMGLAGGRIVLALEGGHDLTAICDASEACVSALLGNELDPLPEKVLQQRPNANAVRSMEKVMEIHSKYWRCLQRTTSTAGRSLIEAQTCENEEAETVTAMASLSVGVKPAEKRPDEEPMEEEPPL

Schistosoma mansoni [12] = experiment: Antischistosomal activity against adult stage of Schistosoma mansoni assessed assessed as inhibition of parasite death; type: functional, organism-based
[13] = Cytotoxicity against mouse Peritoneal macrophage; type: toxicity, cell-based; details: peritoneal macrophages
[14] = Inhibition of equine serum BuChE using butyrylthiocholine iodide as substrate preincubated for 15 mins followed by substrate addition and measured after 2 mins by DTNB reagent based Ellman's method
NB-4 = experiment: Cytotoxicity against human NB-4 cells assessed as reduction in cell viability; type: functional, cell-based
SH-SY5Y = experiment: Cytotoxicity against human SH-SY5Y cells assessed as reduction in cell viability; type: functional, cell-based
Rhizopus arrhizus = experiment: Antifungal activity against Rhizopus oryzae assessed as reduction in fungal growth incubated for 24 hrs by disk diffusion assay; type: functional
Aspergillus flavus [15] = experiment: Antifungal activity against Aspergillus flavus assessed as reduction in fungal growth incubated for 24 hrs by disk diffusion assay; type: functional
Aspergillus niger = experiment: Antifungal activity against Aspergillus niger assessed as reduction in fungal growth incubated for 24 hrs by disk diffusion assay; type: functional
Mucor mucedo = experiment: Antifungal activity against Mucor mucedo assessed as reduction in fungal growth incubated for 24 hrs by disk diffusion assay; type: functional
Leishmania infantum = experiment: Antileishmanial activity against luciferase expressing […] amastigote stage of Leishmania infantum MOM/MA671/TMAP263 infected in PMA differentiated human THP-1 macrophage cells assessed as reduction in parasite growth incubated for 72 hrs by luminescence analysis; type: functional, organism-based; details: MOM/MA671/TMAP263, THP-1, 72 h
[16] = Selectivity index, ratio of IC50 for cytotoxicity against PMA differentiated human THP-1 cells to IC50 for antileishmanial activity against luciferase expressing axenic amastigote stage of Leishmania infantum MOM/MA671/TMAP263 infected in PMA differentiated human THP-1 macrophage cells; type: toxicity, cell-based; details: PMA-differentiated THP-1 cells, read-out: Ratio IC50

With `COc1ccc(/C=C2\Oc3c(ccc(OC(C)=O)c3COC(C)=O)C2=O)cc1OC` the IC50 (PC-3) was 740 nM.

`O=C1/C(=C/c2ccc(Br)cc2)Oc2c1ccc1c2C=CCO1` gave an MIC (Aspergillus flavus [1]) of 18 µM (≈ 6.39 µg/mL), an MIC (Proteus vulgaris) of 4.4 µM (≈ 1.56 µg/mL) and an MIC (Candida albicans) of 18 µM (≈ 6.39 µg/mL). For the same molecule, the MIC (Staphylococcus aureus) was 4.4 µM (≈ 1.56 µg/mL), the MIC (Escherichia coli) was 4.4 µM (≈ 1.56 µg/mL) and the MIC (Bacillus subtilis) was 4.4 µM (≈ 1.56 µg/mL).

For `O=C1/C(=C/c2cccc(-c3ccc(C(F)(F)F)cc3)c2)Nc2ccccc21`, the EC50 (HEK-293T) was 810 nM, the EC50 (Plasmodium falciparum) was 110 nM and the EC50 (Plasmodium berghei) was > 100000 nM.

`COc1cc2c(cc1OC)C(=O)/C(=C/c1ccc(OCCN3CCCCC3)cc1)C2` gave an IC50 (Acetylcholinesterase [2]) of 300 nM.

With `O=C1/C(=C/c2cccs2)Oc2ccccc21` the inhibition at 25 µM (Schistosoma mansoni [3]) was 50% and the CC50 at 24 h [4] was > 150000 nM.

With `COc1ccc(NC(=O)Oc2cccc(/C=C3\Cc4cc(OC)c(OC)cc4C3=O)c2)cc1` the IC50 (Acetylcholinesterase [5]) was 21000 nM, the IC50 [6] was 310 nM and the Ratio IC50 [7] was 70.

Work on `CCOc1ccc2c(c1)O/C(=C\c1cccc(OCC(=O)OC)c1)C2=O` yielded an IC50 [8] of 4800 nM.

`O=C1/C(=C/c2ccc(O)c(O)c2)Oc2cc(O)cc(O)c21` [AUREUSIDIN] gave an EC50 (HT-22 [9]) of 11900 nM, an inhibition [10] of 62% and a Ki (Histone deacetylase 7) of 1660 nM. It also gave a viability at 40 µM (HT-22 [11]) of 97%, a Ki (Histone deacetylase 2) of 1660 nM and a Ki (Histone deacetylase 8) of 1660 nM. It also gave a Ki (Histone deacetylase 4) of 800 nM.

With `Cn1cc(/C=C2\Oc3ccccc3C2=O)c2ccccc21` the EC50 (Schistosoma mansoni [12]) was 34000 nM and the CC50 [13] was > 150000 nM.

`COc1cc2c(cc1OC)C(=O)/C(=C/c1cc[n+](Cc3ccccc3F)cc1)O2` showed an IC50 [14] of 1620 nM.

`COc1ccc(/C=C2\Oc3c(ccc4c3C(=O)CC(C)(C)O4)C2=O)cc1` showed an IC50 (NB-4) of 4800 nM and an IC50 (SH-SY5Y) of 3400 nM.

With `O=C1/C(=C/c2ccncc2)Cc2ccc3c(c21)CCO3` the MIC (Rhizopus arrhizus) was 60 µM (≈ 15.8 µg/mL), the MIC (Aspergillus flavus [15]) was 60 µM (≈ 15.8 µg/mL) and the MIC (Aspergillus niger) was 60 µM (≈ 15.8 µg/mL). For the same molecule, the MIC (Mucor mucedo) was 60 µM (≈ 15.8 µg/mL).

`COc1cc(OC)c2c(c1)O/C(=C\c1ccccc1OC)C2=O` gave an EC50 (Leishmania infantum) of 1300 nM and a selectivity ratio [16] of 57.5.
